Results from ChEMBL document CHEMBL1629674, “Surveillance of carbapenem-resistant Pseudomonas aeruginosa isolates from Puerto Rican Medical Center Hospitals: dissemination of KPC and IMP-18 beta-lactamases” (2009).

Experiments:
Pseudomonas aeruginosa [1] = assay: Antimicrobial activity against Pseudomonas aeruginosa PS34 with PFGE phenotype 4A obtained from blood of ICU patient by agar dilution method in presence of beta-lactamase inhibitor tazobactam; type: functional
Pseudomonas aeruginosa [2] = assay: Antimicrobial activity against Pseudomonas aeruginosa PS25 with PFGE phenotype 1A obtained from sputum of patient by agar dilution method in presence of beta-lactamase inhibitor tazobactam; type: functional
Pseudomonas aeruginosa [3] = assay: Antimicrobial activity against Pseudomonas aeruginosa PS39 with PFGE phenotype 8 expressing beta-lactamase IMP-18 obtained from urine of patient by agar dilution method in presence of beta-lactamase inhibitor tazobactam; type: functional
Pseudomonas aeruginosa [4] = assay: Antimicrobial activity against Pseudomonas aeruginosa PS44 with PFGE phenotype 13 expressing beta-lactamase IMP-18 obtained from blood of patient by agar dilution method in presence of beta-lactamase inhibitor tazobactam; type: functional
Pseudomonas aeruginosa [5] = assay: Antimicrobial activity against Pseudomonas aeruginosa PS33 with PFGE phasotype 9A obtained from blood of patient by agar dilution method in presence of beta-lactamase inhibitor Tazobactam; type: functional
Pseudomonas aeruginosa [6] = assay: Antimicrobial activity against Pseudomonas aeruginosa PS36 with PFGE phenotype 11B obtained from urine of patient by agar dilution method in presence of beta-lactamase inhibitor tazobactam; type: functional
Pseudomonas aeruginosa [7] = assay: Antimicrobial activity against Pseudomonas aeruginosa PS41 with PFGE phenotype 11D obtained from urine of patient by agar dilution method in presence of beta-lactamase inhibitor tazobactam; type: functional
Pseudomonas aeruginosa [8] = assay: Antimicrobial activity against Pseudomonas aeruginosa PS4 with PFGE phasotype 9B expressing beta-lactamase IMP-18 obtained from sputum of patient by agar dilution method in presence of beta-lactamase inhibitor Tazobactam; type: functional
Pseudomonas aeruginosa [9] = assay: Antimicrobial activity against Pseudomonas aeruginosa PS5 with PFGE phenotype 7A expressing beta-lactamase KPC-2 obtained from sputum of ICU patient by agar dilution method in presence of beta-lactamase inhibitor tazobactam; type: functional
Pseudomonas aeruginosa [10] = assay: Antimicrobial activity against Pseudomonas aeruginosa PS2 with PFGE phenotype 10B obtained from urine of ICU patient by agar dilution method in presence of beta-lactamase inhibitor tazobactam; type: functional
Pseudomonas aeruginosa [11] = assay: Antimicrobial activity against Pseudomonas aeruginosa PS35 with PFGE phenotype 11A obtained from urine of patient by agar dilution method in presence of beta-lactamase inhibitor tazobactam; type: functional
Pseudomonas aeruginosa [12] = assay: Antimicrobial activity against Pseudomonas aeruginosa PS1 with PFGE phenotype 9C negative for blaIMP, blaVIM and blaKPC obtained from sputum of patient by agar dilution method in presence of beta-lactamase inhibitor tazobactam
Pseudomonas aeruginosa [13] = assay: Antimicrobial activity against Pseudomonas aeruginosa PS12 with PFGE phasotype 7B obtained from sputum of patient by agar dilution method in presence of beta-lactamase inhibitor Tazobactam; type: functional
Pseudomonas aeruginosa [14] = assay: Antimicrobial activity against Pseudomonas aeruginosa PS30 with PFGE phenotype 11D obtained from sputum of patient by agar dilution method in presence of beta-lactamase inhibitor tazobactam; type: functional
Pseudomonas aeruginosa [15] = assay: Antimicrobial activity against Pseudomonas aeruginosa PS31 with PFGE phenotype 11B obtained from skin of patient by agar dilution method in presence of beta-lactamase inhibitor tazobactam; type: functional
Pseudomonas aeruginosa [16] = assay: Antimicrobial activity against Pseudomonas aeruginosa PS37 with PFGE phasotype 11D obtained from sputum of patient by agar dilution method in presence of beta-lactamase inhibitor Tazobactam; type: functional
Pseudomonas aeruginosa [17] = assay: Antimicrobial activity against Pseudomonas aeruginosa PS22 with PFGE phenotype 3A obtained from urine of patient by agar dilution method in presence of beta-lactamase inhibitor tazobactam; type: functional
Pseudomonas aeruginosa [18] = assay: Antimicrobial activity against Pseudomonas aeruginosa PS11A with PFGE phasotype 7A obtained from sputum of ICU patient by agar dilution method in presence of beta-lactamase inhibitor Tazobactam; type: functional
Pseudomonas aeruginosa [19] = assay: Antimicrobial activity against Pseudomonas aeruginosa PS18A with PFGE phenotype 11D obtained from CSF of ICU patient by agar dilution method in presence of beta-lactamase inhibitor tazobactam; type: functional
Pseudomonas aeruginosa [20] = assay: Antimicrobial activity against Pseudomonas aeruginosa PS43 with PFGE phasotype 2 expressing beta-lactamase KPC-2, OXA-2 obtained from skin of ICU patient by agar dilution method in presence of beta-lactamase inhibitor Tazobactam; type: functional
Pseudomonas aeruginosa [21] = assay: Antimicrobial activity against Pseudomonas aeruginosa PS7A with PFGE phenotype 11D obtained from urine of ICU patient by agar dilution method in presence of beta-lactamase inhibitor tazobactam; type: functional
Pseudomonas aeruginosa [22] = assay: Antimicrobial activity against Pseudomonas aeruginosa PS10 with PFGE phenotype 1A expressing beta-lactamase KPC-2 obtained from blood of patient by agar dilution method in presence of beta-lactamase inhibitor tazobactam; type: functional
Pseudomonas aeruginosa [23] = assay: Antimicrobial activity against Pseudomonas aeruginosa PS40 with PFGE phenotype 5 expressing beta-lactamase KPC-2, OXA-2 obtained from urine of patient by agar dilution method in presence of beta-lactamase inhibitor tazobactam; type: functional
Pseudomonas aeruginosa [24] = assay: Antimicrobial activity against Pseudomonas aeruginosa PS14 with PFGE phenotype 10C obtained from sputum of ICU patient by agar dilution method in presence of beta-lactamase inhibitor tazobactam; type: functional
Pseudomonas aeruginosa [25] = assay: Antimicrobial activity against Pseudomonas aeruginosa PS13 with PFGE phenotype 11E obtained from sputum of ICU patient by agar dilution method in presence of beta-lactamase inhibitor tazobactam; type: functional
Pseudomonas aeruginosa [26] = assay: Antimicrobial activity against Pseudomonas aeruginosa PS26 with PFGE phenotype 3A expressing beta-lactamase OXA-2 obtained from sputum of ICU patient by agar dilution method in presence of beta-lactamase inhibitor tazobactam; type: functional
Pseudomonas aeruginosa [27] = assay: Antimicrobial activity against Pseudomonas aeruginosa PS23 with PFGE phasotype 4A expressing beta-lactamase KPC-2 obtained from blood of patient by agar dilution method in presence of beta-lactamase inhibitor Tazobactam; type: functional
Pseudomonas aeruginosa [28] = assay: Antimicrobial activity against Pseudomonas aeruginosa PS6A with PFGE phenotype 11A obtained from sputum of ICU patient by agar dilution method in presence of beta-lactamase inhibitor tazobactam; type: functional
Pseudomonas aeruginosa [29] = assay: Antimicrobial activity against OprD overproducing Pseudomonas aeruginosa PAO1 expressing mexA and oprD by agar dilution method in presence of beta-lactamase inhibitor Tazobactam; type: functional
Pseudomonas aeruginosa [30] = assay: Antimicrobial activity against Pseudomonas aeruginosa PS28 with PFGE phenotype 6 expressing beta-lactamase KPC-5 obtained from skin of patient by agar dilution method in presence of beta-lactamase inhibitor tazobactam; type: functional
Pseudomonas aeruginosa [31] = assay: Antimicrobial activity against Pseudomonas aeruginosa PS3 with PFGE phenotype 12 obtained from sputum of ICU patient by agar dilution method in presence of beta-lactamase inhibitor tazobactam; type: functional
Pseudomonas aeruginosa [32] = assay: Antimicrobial activity against Pseudomonas aeruginosa PS29 with PFGE phenotype 11D obtained from sputum of patient by agar dilution method in presence of beta-lactamase inhibitor tazobactam; type: functional
Pseudomonas aeruginosa [33] = assay: Antimicrobial activity against Pseudomonas aeruginosa PS21 with PFGE phenotype 11F obtained from skin of patient by agar dilution method in presence of beta-lactamase inhibitor tazobactam; type: functional
Pseudomonas aeruginosa [34] = assay: Antimicrobial activity against Pseudomonas aeruginosa PS19A with PFGE phenotype 11C obtained from urine of patient by agar dilution method in presence of beta-lactamase inhibitor tazobactam; type: functional
Pseudomonas aeruginosa [35] = assay: Antimicrobial activity against Pseudomonas aeruginosa PS15A with PFGE phasotype 10A obtained from blood of patient by agar dilution method in presence of beta-lactamase inhibitor Tazobactam; type: functional
Pseudomonas aeruginosa [36] = assay: Antimicrobial activity against Pseudomonas aeruginosa PS9 with PFGE phenotype 3B obtained from sputum of patient by agar dilution method in presence of beta-lactamase inhibitor tazobactam; type: functional
Pseudomonas aeruginosa [37] = assay: Antimicrobial activity against Pseudomonas aeruginosa PS17B with PFGE phenotype 11D expressing beta-lactamase KPC-2 obtained from blood of ICU patient by agar dilution method in presence of beta-lactamase inhibitor tazobactam; type: functional
Pseudomonas aeruginosa [38] = assay: Antimicrobial activity against Pseudomonas aeruginosa PS20A with PFGE phenotype 11D obtained from skin of patient by agar dilution method in presence of beta-lactamase inhibitor tazobactam; type: functional

CCN1CCN(C(=O)N[C@@H](C(=O)N[C@@H]2C(=O)N3[C@@H]2SC(C)(C)[C@@H]3C(=O)O)c2ccccc2)C(=O)C1=O [PIPERACILLIN]
MIC (Pseudomonas aeruginosa [1]): > 256 µg/mL
MIC (Pseudomonas aeruginosa [2]): > 256 µg/mL
MIC (Pseudomonas aeruginosa [3]): 128 µg/mL
MIC (Pseudomonas aeruginosa [4]): 32 µg/mL
MIC (Pseudomonas aeruginosa [5]): 32 µg/mL
MIC (Pseudomonas aeruginosa [6]): > 256 µg/mL
MIC (Pseudomonas aeruginosa [7]): > 256 µg/mL
MIC (Pseudomonas aeruginosa [8]): 64 µg/mL
MIC (Pseudomonas aeruginosa [9]): > 256 µg/mL
MIC (Pseudomonas aeruginosa [10]): 4 µg/mL
MIC (Pseudomonas aeruginosa [11]): > 256 µg/mL
MIC (Pseudomonas aeruginosa [12]): 8 µg/mL
MIC (Pseudomonas aeruginosa [13]): > 256 µg/mL
MIC (Pseudomonas aeruginosa [14]): > 256 µg/mL
MIC (Pseudomonas aeruginosa [15]): > 256 µg/mL
MIC (Pseudomonas aeruginosa [16]): > 256 µg/mL
MIC (Pseudomonas aeruginosa [17]): 256 µg/mL
MIC (Pseudomonas aeruginosa [18]): > 256 µg/mL
MIC (Pseudomonas aeruginosa [19]): > 256 µg/mL
MIC (Pseudomonas aeruginosa [20]): 256 µg/mL
MIC (Pseudomonas aeruginosa [21]): > 256 µg/mL
MIC (Pseudomonas aeruginosa [22]): > 256 µg/mL
MIC (Pseudomonas aeruginosa [23]): 128 µg/mL
MIC (Pseudomonas aeruginosa [24]): 4 µg/mL
MIC (Pseudomonas aeruginosa [25]): > 256 µg/mL
MIC (Pseudomonas aeruginosa [26]): 128 µg/mL
MIC (Pseudomonas aeruginosa [27]): > 256 µg/mL
MIC (Pseudomonas aeruginosa [28]): > 256 µg/mL
MIC (Pseudomonas aeruginosa [29]): 4 µg/mL
MIC (Pseudomonas aeruginosa [30]): 128 µg/mL
MIC (Pseudomonas aeruginosa [31]): 8 µg/mL
MIC (Pseudomonas aeruginosa [32]): > 256 µg/mL
MIC (Pseudomonas aeruginosa [33]): > 256 µg/mL
MIC (Pseudomonas aeruginosa [34]): > 256 µg/mL
MIC (Pseudomonas aeruginosa [35]): 8 µg/mL
MIC (Pseudomonas aeruginosa [36]): 64 µg/mL
MIC (Pseudomonas aeruginosa [37]): > 256 µg/mL
MIC (Pseudomonas aeruginosa [38]): > 256 µg/mL
